Laboratory results published in the supplement of paper PMC10307832.

What was measured:
Test in all cases: relative viability (nuclei count vs DMSO), 5 days (fraction); higher = more cells survive
[1] = test system: ABC-1
Outline: (§1)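 Medians of duplicate plates are given as relative viability. That measure is the nuclei count in treated wells divided by the count in vehicle wells. Counts were taken on 4× images of lung cancer cell lines in 1536-well plates, 5 days after pin-tool dosing the day after seeding with one drug alone or a fixed anchor-drug dose plus five library-drug doses (not always all listed) in √10 steps.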

[2] = test system: CAL-12T
Outline: as §1

[3] = test system: COR-L 105
Outline: as §1

[4] = test system: ChaGo-K-1
Outline: as §1

[5] = test system: EMC-BAC-2
Outline: as §1

[6] = test system: EPLC-272H
Outline: as §1

[7] = test system: HCC-15
Outline: as §1

[8] = test system: HCC-78
Outline: as §1

[9] = test system: HOP-62
Outline: as §1

[10] = test system: LXF-289
Outline: as §1

[11] = test system: NCI-H1666
Outline: as §1

[12] = test system: NCI-H1755
Outline: as §1

[13] = test system: NCI-H1915
Outline: as §1

[14] = test system: NCI-H1975
Outline: as §1

[15] = test system: NCI-H2023
Outline: as §1

[16] = test system: NCI-H2085
Outline: as §1

[17] = test system: NCI-H2126
Outline: as §1

[18] = test system: NCI-H3122
Outline: as §1

[19] = test system: NCI-H322M
Outline: as §1

[20] = test system: NCI-H358
Outline: as §1

[21] = test system: NCI-H441
Outline: as §1

[22] = test system: UMC-11
Outline: as §1

Structure (SMILES): CC(=O)O[C@@]12CO[C@@H]1C[C@H](O)[C@@]1(C)C(=O)[C@H](O)C3=C(C)[C@@H](OC(=O)[C@H](O)[C@@H](NC(=O)OC(C)(C)C)c4ccccc4)C[C@@](O)([C@@H](OC(=O)c4ccccc4)[C@H]21)C3(C)C [Docetaxel] + COc1cccc2cc(-c3nc([C@H]4CC[C@H](C(=O)O)CC4)n4ncnc(N)c34)[nH]c12 [OSI-027] (partner 0.5 µM)
- relative viability ([1]; first compound 0.0002 µM): 0.443
- relative viability ([1]; first compound 0.000632 µM): 0.562
- relative viability ([1]; first compound 0.002 µM): 0.289
- relative viability ([1]; first compound 0.006325 µM): 0.178
- relative viability ([1]; first compound 0.02 µM): 0.186
- relative viability ([2]; first compound 0.0002 µM): 0.44
- relative viability ([2]; first compound 0.000632 µM): 0.272
- relative viability ([2]; first compound 0.002 µM): 0.186
- relative viability ([2]; first compound 0.02 µM): 0.111
- relative viability ([3]; first compound 0.0002 µM): 0.569
- relative viability ([3]; first compound 0.000632 µM): 0.654
- relative viability ([3]; first compound 0.002 µM): 0.408
- relative viability ([3]; first compound 0.006325 µM): 0.277
- relative viability ([3]; first compound 0.02 µM): 0.289
- relative viability ([4]; first compound 0.0002 µM): 0.554
- relative viability ([4]; first compound 0.000632 µM): 0.459
- relative viability ([4]; first compound 0.002 µM): 0.301
- relative viability ([4]; first compound 0.006325 µM): 0.23
- relative viability ([4]; first compound 0.02 µM): 0.129
- relative viability ([5]; first compound 0.0002 µM): 0.424
- relative viability ([5]; first compound 0.000632 µM): 0.327
- relative viability ([5]; first compound 0.002 µM): 0.257
- relative viability ([5]; first compound 0.006325 µM): 0.25
- relative viability ([5]; first compound 0.02 µM): 0.172
- relative viability ([6]; first compound 0.0002 µM): 0.258
- relative viability ([6]; first compound 0.000632 µM): 0.235
- relative viability ([6]; first compound 0.002 µM): 0.228
- relative viability ([6]; first compound 0.006325 µM): 0.159
- relative viability ([6]; first compound 0.02 µM): 0.124
- relative viability ([7]; first compound 0.0002 µM): 0.542
- relative viability ([7]; first compound 0.000632 µM): 0.246
- relative viability ([7]; first compound 0.002 µM): 0.205
- relative viability ([7]; first compound 0.006325 µM): 0.219
- relative viability ([7]; first compound 0.02 µM): 0.133
- relative viability ([8]; first compound 0.0002 µM): 0.321
- relative viability ([8]; first compound 0.000632 µM): 0.308
- relative viability ([8]; first compound 0.002 µM): 0.315
- relative viability ([8]; first compound 0.006325 µM): 0.278
- relative viability ([8]; first compound 0.02 µM): 0.284
- relative viability ([9]; first compound 0.0002 µM): 0.835
- relative viability ([9]; first compound 0.000632 µM): 0.631
- relative viability ([9]; first compound 0.002 µM): 0.369
- relative viability ([10]; first compound 0.0002 µM): 0.819
- relative viability ([10]; first compound 0.000632 µM): 0.652
- relative viability ([10]; first compound 0.006325 µM): 0.117
- relative viability ([10]; first compound 0.02 µM): 0.067
- relative viability ([11]; first compound 0.0002 µM): 0.739
- relative viability ([11]; first compound 0.000632 µM): 0.641
- relative viability ([11]; first compound 0.002 µM): 0.574
- relative viability ([11]; first compound 0.006325 µM): 0.491
- relative viability ([11]; first compound 0.02 µM): 0.322
- relative viability ([12]; first compound 0.0002 µM): 0.677
- relative viability ([12]; first compound 0.000632 µM): 0.554
- relative viability ([12]; first compound 0.002 µM): 0.402
- relative viability ([12]; first compound 0.006325 µM): 0.39
- relative viability ([12]; first compound 0.02 µM): 0.353
- relative viability ([13]; first compound 0.0002 µM): 0.603
- relative viability ([13]; first compound 0.000632 µM): 0.505
- relative viability ([13]; first compound 0.006325 µM): 0.224
- relative viability ([13]; first compound 0.02 µM): 0.14
- relative viability ([14]; first compound 0.0002 µM): 0.66
- relative viability ([14]; first compound 0.000632 µM): 0.479
- relative viability ([14]; first compound 0.002 µM): 0.217
- relative viability ([14]; first compound 0.006325 µM): 0.16
- relative viability ([14]; first compound 0.02 µM): 0.11
- relative viability ([15]; first compound 0.0002 µM): 0.341
- relative viability ([15]; first compound 0.000632 µM): 0.339
- relative viability ([15]; first compound 0.002 µM): 0.131
- relative viability ([15]; first compound 0.006325 µM): 0.0963
- relative viability ([15]; first compound 0.02 µM): 0.0554
- relative viability ([16]; first compound 0.0002 µM): 0.718
- relative viability ([16]; first compound 0.000632 µM): 0.706
- relative viability ([16]; first compound 0.002 µM): 0.433
- relative viability ([16]; first compound 0.006325 µM): 0.316
- relative viability ([16]; first compound 0.02 µM): 0.272
- relative viability ([17]; first compound 0.0002 µM): 0.742
- relative viability ([17]; first compound 0.000632 µM): 0.622
- relative viability ([17]; first compound 0.002 µM): 0.281
- relative viability ([17]; first compound 0.006325 µM): 0.297
- relative viability ([17]; first compound 0.02 µM): 0.221
- relative viability ([18]; first compound 0.0002 µM): 0.932
- relative viability ([18]; first compound 0.000632 µM): 0.861
- relative viability ([18]; first compound 0.002 µM): 0.227
- relative viability ([18]; first compound 0.006325 µM): 0.168
- relative viability ([18]; first compound 0.02 µM): 0.118
- relative viability ([19]; first compound 0.0002 µM): 0.531
- relative viability ([19]; first compound 0.000632 µM): 0.532
- relative viability ([19]; first compound 0.002 µM): 0.471
- relative viability ([19]; first compound 0.006325 µM): 0.383
- relative viability ([19]; first compound 0.02 µM): 0.279
- relative viability ([20]; first compound 0.0002 µM): 0.738
- relative viability ([20]; first compound 0.000632 µM): 0.23
- relative viability ([20]; first compound 0.006325 µM): 0.0795
- relative viability ([20]; first compound 0.02 µM): 0.0599
- relative viability ([21]; first compound 0.0002 µM): 0.654
- relative viability ([21]; first compound 0.000632 µM): 0.364
- relative viability ([21]; first compound 0.002 µM): 0.33
- relative viability ([21]; first compound 0.006325 µM): 0.288
- relative viability ([21]; first compound 0.02 µM): 0.235
- relative viability ([22]; first compound 0.0002 µM): 0.433
- relative viability ([22]; first compound 0.000632 µM): 0.469
- relative viability ([22]; first compound 0.002 µM): 0.231
- relative viability ([22]; first compound 0.006325 µM): 0.244
- relative viability ([22]; first compound 0.02 µM): 0.175
